# Experimental data published in ChEMBL document CHEMBL4138123, “Design, synthesis and biological evaluation of novel pyrazolochalcones as potential modulators of PI3K/Akt/mTOR pathway and inducers of apoptosis in breast cancer cells” (Eur J Med Chem, 2017).
# How the values were obtained:
# SR [1] = test: Cytotoxicity against human SR cells assessed as growth inhibition after 48 hrs by sulforhodamine B assay; format: functional
# NCI-H322M = test: Cytotoxicity against human NCI-H322M cells assessed as growth inhibition after 48 hrs by sulforhodamine B assay; format: functional; conditions: for CC50: read-out: LC50 (the source's name)
# Malme-3M = test: Cytotoxicity against human MALME-3M cells assessed as growth inhibition after 48 hrs by sulforhodamine B assay; format: functional
# UACC-257 = test: Cytotoxicity against human UACC257 cells assessed as growth inhibition after 48 hrs by sulforhodamine B assay; format: functional; conditions: UACC-257, 48 h
# UO-31 = test: Cytotoxicity against human UO31 cells assessed as growth inhibition after 48 hrs by sulforhodamine B assay; format: functional; conditions: UO-31, 48 h
# MDA-MB-231 [2] = test: Cytotoxicity against human MDA-MB-231 cells assessed as growth inhibition after 48 hrs by MTT assay; format: functional, cell-based; conditions: MDA-MB-231, 48 h
# CCRF-CEM [3] = test: Cytotoxicity against human CCRF-CEM cells assessed as cell growth at 0.01 uM after 48 hrs by sulforhodamine B assay relative to control; format: functional; conditions: read-out: Activity
# SK-MEL-28 [4] = test: Cytotoxicity against human SK-MEL-28 cells assessed as cell growth at 0.01 uM after 48 hrs by sulforhodamine B assay relative to control; format: functional; conditions: SK-MEL-28, 48 h, read-out: Activity
# U-251 [5] = test: Cytotoxicity against human U251 cells assessed as cell growth at 0.01 uM after 48 hrs by sulforhodamine B assay relative to control; format: functional; conditions: U-251, 48 h, read-out: Activity
# SR [6] = test: Cytotoxicity against human SR cells assessed as cell growth at 0.01 uM after 48 hrs by sulforhodamine B assay relative to control; format: functional; conditions: read-out: Activity
# TK-10 [7] = test: Cytotoxicity against human TK10 cells assessed as cell growth at 0.01 uM after 48 hrs by sulforhodamine B assay relative to control; format: functional; conditions: TK-10, 48 h, read-out: Activity
# MDA-MB-231 [8] = test: Cytotoxicity against human MDA-MB-231 cells assessed as cell growth at 0.01 uM after 48 hrs by sulforhodamine B assay relative to control; format: functional; conditions: MDA-MB-231, 48 h, read-out: Activity
# Hs-578T = test: Cytotoxicity against human Hs 578T cells assessed as cell growth at 0.01 uM after 48 hrs by sulforhodamine B assay relative to control; format: functional; conditions: read-out: Activity
# BT-549 [9] = test: Cytotoxicity against human BT549 cells assessed as cell growth at 0.01 uM after 48 hrs by sulforhodamine B assay relative to control; format: functional; conditions: BT-549, 48 h, read-out: Activity
# MDA-MB-468 = test: Cytotoxicity against human MDA-MB-468 cells assessed as cell growth at 0.01 uM after 48 hrs by sulforhodamine B assay relative to control; format: functional; conditions: MDA-MB-468, 48 h, read-out: Activity
# A549 = test: Cytotoxicity against human A549/ATCC cells assessed as cell growth at 0.1 uM after 48 hrs by sulforhodamine B assay relative to control; format: functional; conditions: A549, 48 h, read-out: Activity
# SK-MEL-28 [10] = test: Cytotoxicity against human SK-MEL-28 cells assessed as cell growth at 0.1 uM after 48 hrs by sulforhodamine B assay relative to control; format: functional; conditions: SK-MEL-28, 48 h, read-out: Activity
# RXF 393 [11] = test: Cytotoxicity against human RXF393 cells assessed as cell growth at 0.1 uM after 48 hrs by sulforhodamine B assay relative to control; format: functional; conditions: RXF 393, 48 h, read-out: Activity
# SN12C [12] = test: Cytotoxicity against human SN12C cells assessed as cell growth at 0.1 uM after 48 hrs by sulforhodamine B assay relative to control; format: functional; conditions: read-out: Activity
# TK-10 [13] = test: Cytotoxicity against human TK10 cells assessed as cell growth at 0.1 uM after 48 hrs by sulforhodamine B assay relative to control; format: functional; conditions: TK-10, 48 h, read-out: Activity
# CCRF-CEM [14] = test: Cytotoxicity against human CCRF-CEM cells assessed as cell growth at 1 uM after 48 hrs by sulforhodamine B assay relative to control; format: functional; conditions: read-out: Activity
# HL-60(TB) = test: Cytotoxicity against human HL-60(TB) cells assessed as cell growth at 1 uM after 48 hrs by sulforhodamine B assay relative to control; format: functional; conditions: HL-60, 48 h, read-out: Activity
# K562 = test: Cytotoxicity against human K562 cells assessed as cell growth at 1 uM after 48 hrs by sulforhodamine B assay relative to control; format: functional; conditions: K562, 48 h, read-out: Activity
# MOLT-4 = test: Cytotoxicity against human MOLT4 cells assessed as cell growth at 1 uM after 48 hrs by sulforhodamine B assay relative to control; format: functional; conditions: MOLT-4, 48 h, read-out: Activity
# U-251 [15] = test: Cytotoxicity against human U251 cells assessed as cell growth at 1 uM after 48 hrs by sulforhodamine B assay relative to control; format: functional; conditions: U-251, 48 h, read-out: Activity
# MDA-MB-435 = test: Cytotoxicity against human MDA-MB-435 cells assessed as cell growth at 1 uM after 48 hrs by sulforhodamine B assay relative to control; format: functional; conditions: MDA-MB-435, 48 h, read-out: Activity
# SK-MEL-28 [16] = test: Cytotoxicity against human SK-MEL-28 cells assessed as cell growth at 1 uM after 48 hrs by sulforhodamine B assay relative to control; format: functional; conditions: SK-MEL-28, 48 h, read-out: Activity
# HT-29 = test: Cytotoxicity against human HT-29 cells assessed as cell growth at 10 uM after 48 hrs by sulforhodamine B assay relative to control; format: functional; conditions: HT-29, 48 h, read-out: Activity
# SNB-19 = test: Cytotoxicity against human SNB19 cells assessed as cell growth at 10 uM after 48 hrs by sulforhodamine B assay relative to control; format: functional; conditions: SNB-19, 48 h, read-out: Activity
# U-251 [17] = test: Cytotoxicity against human U251 cells assessed as cell growth at 10 uM after 48 hrs by sulforhodamine B assay relative to control; format: functional; conditions: U-251, 48 h, read-out: Activity
# OVCAR-4 = test: Cytotoxicity against human OVCAR4 cells assessed as cell growth at 10 uM after 48 hrs by sulforhodamine B assay relative to control; format: functional; conditions: OVCAR-4, 48 h, read-out: Activity
# A498 = test: Cytotoxicity against human A498 cells assessed as cell growth at 10 uM after 48 hrs by sulforhodamine B assay relative to control; format: functional; conditions: A498, 48 h, read-out: Activity
# SN12C [18] = test: Cytotoxicity against human SN12C cells assessed as cell growth at 10 uM after 48 hrs by sulforhodamine B assay relative to control; format: functional; conditions: read-out: Activity
# TK-10 [19] = test: Cytotoxicity against human TK10 cells assessed as cell growth at 10 uM after 48 hrs by sulforhodamine B assay relative to control; format: functional; conditions: TK-10, 48 h, read-out: Activity
# M14 = test: Cytotoxicity against human M14 cells assessed as cell growth at 100 uM after 48 hrs by sulforhodamine B assay relative to control; format: functional; conditions: M14, 48 h, read-out: Activity
# RXF 393 [20] = test: Cytotoxicity against human RXF393 cells assessed as cell growth at 100 uM after 48 hrs by sulforhodamine B assay relative to control; format: functional; conditions: RXF 393, 48 h, read-out: Activity
# BT-549 [21] = test: Cytotoxicity against human BT549 cells assessed as cell growth at 100 uM after 48 hrs by sulforhodamine B assay relative to control; format: functional; conditions: BT-549, 48 h, read-out: Activity
structure (smiles),measurement,setting,value
COc1cc(-c2cc(/C=C/C(=O)c3ccc4c(c3)OCO4)[nH]n2)cc(OC)c1OC,TGI,SR [1],> 100 µM
same,CC50,SR [1]; read-out: LC50 (the source's name),> 100 µM
same,TGI,NCI-H322M,19.1 µM
same,CC50,NCI-H322M,> 100 µM
same,LC50,Malme-3M,84.5 µM
same,TGI,Malme-3M,20.8 µM
same,LC50,UACC-257,> 100 µM
same,TGI,UACC-257,40.3 µM
same,LC50,UO-31,26.3 µM
same,TGI,UO-31,5.44 µM
same,IC50,MDA-MB-231 [2],1.72 µM
same,growth at 0.01 µM,CCRF-CEM [3],94%
same,growth at 0.01 µM,SK-MEL-28 [4],100%
same,growth at 0.01 µM,U-251 [5],96%
same,growth at 0.01 µM,SR [6],106%
same,growth at 0.01 µM,TK-10 [7],89%
same,growth at 0.01 µM,MDA-MB-231 [8],101%
same,growth at 0.01 µM,Hs-578T,93%
same,growth at 0.01 µM,BT-549 [9],94%
same,growth at 0.01 µM,MDA-MB-468,90%
same,growth at 0.1 µM,A549,98%
same,growth at 0.1 µM,SK-MEL-28 [10],106%
same,growth at 0.1 µM,RXF 393 [11],89%
same,growth at 0.1 µM,SN12C [12],96%
same,growth at 0.1 µM,TK-10 [13],87%
same,growth at 1 µM,CCRF-CEM [14],67%
same,growth at 1 µM,HL-60(TB),86%
same,growth at 1 µM,K562,102%
same,growth at 1 µM,MOLT-4,99%
same,growth at 1 µM,U-251 [15],85%
same,growth at 1 µM,MDA-MB-435,90%
same,growth at 1 µM,SK-MEL-28 [16],92%
same,growth at 10 µM,HT-29,-54%
same,growth at 10 µM,SNB-19,30%
same,growth at 10 µM,U-251 [17],-31%
same,growth at 10 µM,OVCAR-4,27%
same,growth at 10 µM,A498,9%
same,growth at 10 µM,SN12C [18],22%
same,growth at 10 µM,TK-10 [19],-31%
same,growth at 100 µM,M14,22%
same,growth at 100 µM,RXF 393 [20],-89%
COc1ccc(C(=O)/C=C/c2cc(-c3ccc(OC)c(OC)c3)n[nH]2)cc1OC,GI50,NCI-H322M,2.67 µM
same,TGI,NCI-H322M,8.23 µM
same,CC50,NCI-H322M,> 100 µM
same,GI50,Malme-3M,2.59 µM
same,TGI,Malme-3M,6.21 µM
same,GI50,UACC-257,2.16 µM
same,TGI,UACC-257,5.02 µM
same,GI50,UO-31,1.5 µM
same,TGI,UO-31,3.8 µM
same,IC50,MDA-MB-231 [2],1.1 µM
same,growth at 0.01 µM,CCRF-CEM [3],99%
same,growth at 0.01 µM,SK-MEL-28 [4],89%
same,growth at 0.01 µM,U-251 [5],95%
same,growth at 0.01 µM,SR [6],94%
same,growth at 0.01 µM,TK-10 [7],98%
same,growth at 0.01 µM,MDA-MB-231 [8],108%
same,growth at 0.01 µM,Hs-578T,93%
same,growth at 0.01 µM,BT-549 [9],84%
same,growth at 0.01 µM,MDA-MB-468,87%
same,growth at 0.1 µM,A549,93%
same,growth at 0.1 µM,SK-MEL-28 [10],95%
same,growth at 0.1 µM,RXF 393 [11],84%
same,growth at 0.1 µM,SN12C [12],98%
same,growth at 0.1 µM,TK-10 [13],96%
same,growth at 1 µM,CCRF-CEM [14],15%
same,growth at 1 µM,HL-60(TB),86%
same,growth at 1 µM,K562,38%
same,growth at 1 µM,MOLT-4,73%
same,growth at 1 µM,U-251 [15],62%
same,growth at 1 µM,MDA-MB-435,87%
same,growth at 1 µM,SK-MEL-28 [16],81%
same,growth at 10 µM,HT-29,-28%
same,growth at 10 µM,SNB-19,-48%
same,growth at 10 µM,U-251 [17],-85%
same,growth at 10 µM,OVCAR-4,-7%
same,growth at 10 µM,A498,-62%
same,growth at 10 µM,SN12C [18],-40%
same,growth at 10 µM,TK-10 [19],25%
same,growth at 100 µM,M14,-51%
same,growth at 100 µM,RXF 393 [20],-90%
same,growth at 100 µM,BT-549 [21],-89%
